# From US9808434B2, “Compound for treating cancer and diabetes” (CITY OF HOPE, priority 2011, dated 2017)
# “Also recorded” adds a separate entry of the source.
# Assays:
# HL-60 cells [1] = assay: HL-60 cell viability, MTT assay; conditions: for cytotoxicity and cell proliferation: 48 hours, 1-15 μM
# Experimental: Three independent experiments were carried out with 3 duplications each, and data are shown as mean±SE.
# [2] = system: cyclin D1, cyclin E2, CDK2, CDK4, p21WAF1/Cip1, p27Kip1; assay: HL-60 cell cycle regulatory proteins, Western blot; format: cell-based, human; conditions: 24 hours, 0.5-3 μM
# Experimental: HL-60 cells were treated without or with COH-SR4 or COH-SR9 at a concentration of 0.5 μM, 1 μM, 2 μM, or 3 μM for 24 hours. Then the total cell lysates from the treated cells or untreated cells were resolved under electrophoresis and immunoblotted with antibodies against cyclin D1, cyclin E2, CDK2, CDK4, p21WAF1/Cip1, p27Kip1, and β-actin. β-actin served as an internal control. Densitometric quantitation was performed on each blot and the arbitrary numbers above each band represent the fold increase/decrease compared with untreated control. […] These kinase inhibitors are known to interfere with cell cycle progression to cause phase-specific cycle arrest by perturbing the phosphorylation process through direct interaction with their target proteins (cyclins or CDK).
# HL-60 cells [3] = assay: Differentiation of HL-60 cells (Giemsa-Wright, NBT, CD11b/CD14); format: cell-based, human; conditions: 48 hours; for surface expression of CD11b and CD14: 0.5-3 μM, flow cytometry; for morphologic changes (Giemsa-Wright stain), myeloid differentiation: 2-10 μM
# Experimental: HL-60 cells were incubated with a test compound at various concentrations (2˜10 μM), DMSO, or without any test compound for 48 hours, and then examined for morphologic changes by Giemsa-Wright stain. The results were observed microscopically and shown in FIG. 13 at a magnification of ×400. […] Such results were similar to cells treated with DMSO or all-trans retinoic acid (ATRA), wherein DMSO or ATRA terminally differentiated HL-60 cells into myeloid cells (FIG. 13).
# HL-60 cells (2.5×10^5) were treated with or without a test compound for 48 hours and then stained with NBT, wherein positively-stained cells appeared as purple black (FIG. 14A). NBT positive cells were counted and the overall percentage was calculated based on 200 total cells counted for each treatment. Three˜four independent experiments were carried out, and data are shown as mean±SE (FIG. 14B). This measurement of “oxidative burst” by the NBT assay is a well-known and extensively tested functional marker of HL-60 cell differentiation.
# HL-60 cells (2.5×10^5) were incubated with a test compound (COH-SR4 or COH-SR9) at a concentration of 0.5 μM, 1 μM, 2 μM, or 3 μM, or without any COH-SR compound for 48 hours and then assessed for the surface expression of CD11b (FIG. 14C) and CD14 (FIG. 14D) by flow cytometry, respectively. Three-four independent experiments were carried out, and data are shown as mean±SE (FIGS. 14C and 14D).
# [4] = system: HMLE breast cancer cell line; assay: HMLE viability, DIMSCAN assay; format: cell-based, human; conditions: 3 days, 2-50 μM
# Experimental: The effects of COH-SR compounds on breast cancer cells were investigated. Cells from 4T1 or HMLE breast cancer cell line were seeded in 96-well plates (about 2000 cells/well), allowed to proliferate for one day, treated with a COH-SR compound, doxorubicin, paclitaxel, cisplatin, or nothing (control) at a specific dose (3 wells for each treatment) and assayed for cell viability 3 days after using DIMSCAN assay. COH-SR3, COH-SR4, COH-SR9, doxorubicin, paclitaxel, and cisplatin were used at a dosage of 40 nM, 200 nM, 1 μM, 2 μM, 10 μM, or 50 μM for 4T1 breast cancer cell lines. COH-SR14 was used at a dosage of 40 nM, 200 nM, 1 μM, 2 μM, or 10 μM for 4T1 breast cancer cell lines. COH-SR3, COH-SR4, COH-SR9, doxorubicin, paclitaxel, and cisplatin were used at a dosage of 2 μM, 10 μM, or 50 μM for HMLE breast cancer cell lines. COH-SR14 was used at a dosage of 2 μM, or 10 μM for HMLE breast cancer cell lines.
# AMPK = AMPK activation in Hela cells, Western blot; format: cell-based; conditions: 1 hour, 1, 3 or 5 μM
# Experimental: Activation of AMPK was associated with the phosphorylation of the α-subunit on Thr-172 of as assessed using phospho-specific antibodies (FIGS. 10A-B). AMPK activation also leads to the increased phosphorylation of the target protein acetyl-CoA carboxylase (ACC) (FIG. 10B).
# Cells of each cell lines (Hela, HL-60, and 3T3-L1) were treated for 1 hour with a test compound (COH-SR4, COH-SR9, COH-SR16, or COH-SR18) at a concentration of 1 μM, 3 μM, or 5 μM, or AICAR (5-aminoimidazole-4-carboxamideriboside, an AMPK agonist used as positive control) at a concentration of 500 μM, or none of the above (the untreated cells as negative control). Total cell lysates from the untreated cells and the cells treated with a test compound or AICAR were analyzed by Western blot assay using specific antibodies against phospho-AMPK, phospho-ACC, total AMPK and total ACC.
# HL-60 cells [5] = assay: HL-60 cell cycle, PI flow cytometry; format: cell-based, human; conditions: for cells in the S phase: 3 μM, control 47%; for viable cells arrested in G0/G1 phase: 48-hour treatment
# Experimental: HL-60 cells (1×10^6) were incubated with a test compound (COH-SR4 or COH-SR9) at various concentrations (0.5˜3 μM) for 48 hours, washed and harvested. The cells were then fixed and stained with propodium iodide (P1) and the DNA content was analyzed by flow cytometry. Results of each figure were from 3-4 independent experiments. The cell number in each cell cycle phase was calculated and expressed as overall percentage (FIG. 15A). The percentage of cells in G0/G1 were measured from 0-48-hour treatment with test compounds (FIG. 15B), data expressed as mean±SE.
Structure (SMILES),cytotoxicity and cell proliferation (HL-60 cells [1]),"IC50 (HL-60 cells [1]; Homo sapiens, HL-60, 48 h)","IC50 (HL-60 cells [1]; Homo sapiens, HL-60, 72 h)",protein levels of CDK inhibitors p21WAF1/Cip1 and p27Kip1 [2],"protein levels of cyclin D1, cyclin E2, CDK2 and CDK4 [2]",superoxide production (NBT-positive cells) (HL-60 cells [3]),surface expression of CD11b and CD14 (HL-60 cells [3]),"morphologic changes (Giemsa-Wright stain), myeloid differentiation (HL-60 cells [3])","cytotoxic effects compared with doxorubicin, paclitaxel and cisplatin (FIG. 30) [4]",AMPK activation (AMPK),cells in the S phase (HL-60 cells [5]),viable cells arrested in G0/G1 phase (HL-60 cells [5]),IC50 (HL-60 cells [1]; 72 hours incubation)
"O=C(Nc1cc(Cl)cc(Cl)c1)Nc1cc(Cl)cc(Cl)c1 [COH-SR4, 1,3-bis(3,5-dichlorophenyl) urea]",exhibited cytotoxicity and prevented cell proliferation of HL-60 leukemia cells,< 5000 nM,~1700 nM,upregulated,"dose-dependent reduction in the protein levels of cyclin D1, cyclin E2, CDK2 and CDK4",Induced Superoxide Production,dose-dependent increase in expression of both CD11 b and CD14,"exhibited cytoplasmic vacuolation, reduced nucleus-to-cytoplasmic ratio, and absence of prominent nucleoli",more potent cytotoxic effects,highest potency; also recorded: Dose-dependent AMPK activation,10%,85%,–
"Cc1c(Cl)cc(NC(=O)Nc2cc(Cl)cc(Cl)c2)c(O)c1Cl [COH-SR9, 1-(3,5-dichlorophenyl)-3-(3,5-dichloro-2-hydroxy-4-methyphenyl) urea]",exhibited cytotoxicity and prevented cell proliferation of HL-60 leukemia cells,–,–,upregulated,"dose-dependent reduction in the protein levels of cyclin D1, cyclin E2, CDK2 and CDK4",Induced Superoxide Production,dose-dependent increase in expression of both CD11 b and CD14,"exhibited cytoplasmic vacuolation, reduced nucleus-to-cytoplasmic ratio, and absence of prominent nucleoli",more potent cytotoxic effects,Dose-dependent AMPK activation,13%,85%,~2500 nM
